These results are taken from publication PMC10859787 (Clinical and Translational Science, 2024).

The nature of data set [1]: Population pharmacokinetic analysis of upadacitinib plasma concentrations. As to conditions: for Cmax: C max; for Cmax / concentration at 24 h / C avg: model-estimated, 15 mg once daily, median (5th to 95th percentile); for concentration at 24 h: C trough. It counts as in vivo, human.
For data set [2] the following is noted: cited from earlier work.
Data set [3] deals with cytochrome P450 (CYP) 3A. As to conditions: cited from earlier work.
Data set [4] relates to CYP2D6. The settings on record: cited from earlier work.
The mark [5] stands for this setting: human, plasma, oral, 15 mg, patients with RA in phase III trials (N = 1592).
The mark [6] stands for this setting: human, plasma, oral, 15 mg, patients with nr-axSpA (N = 71).

As a reminder, the Vd/F is the apparent distribution volume after extravascular dosing. As usually defined, the Cmax is the highest concentration seen after dosing. As for `CC[C@@H]1CN(C(=O)NCC(F)(F)F)C[C@@H]1c1cnc2cnc3[nH]ccc3n12` [upadacitinib], the Vd/F in data set [1] (human, plasma, oral, 15 mg) came out at 171 L. The maximum concentration (Cmax) in data set [1] (setting [5]) is 41.1 ng/mL; in data set [1] (setting [6]), 37.3 ng/mL. The concentration at 24 h in data set [1] (human, plasma, oral, 15 mg, patients with AS (N = 173)) was 3.71 ng/mL; in data set [1] (setting [5]) it was 3.72 ng/mL; in data set [1] (setting [6]) it was 4.58 ng/mL. Also, the C avg in data set [1] (patients with AS (N = 173)) is listed as 14.5 (9.78, 25.9) ng/mL; in data set [1] (patients with RA in phase III trials (N = 1592)), 14.9 (9.74, 29.2) ng/mL; in data set [1] (patients with nr-axSpA (N = 71)), 14.8 (10.5, 25.5) ng/mL. For the same compound, in data set [2] (7.5 to 45 mg q.d. dose range), the “dose linearity of pharmacokinetics” value was “linear pharmacokinetics”. In addition, the “apparent volume of distribution of the central compartment (population estimate)” value in data set [2] (previously developed RA model) is 156 L. Besides, the “substrate for cytochrome P450 (CYP) 3A” value in data set [3] is “substrate”. Also, the “substrate for CYP2D6” value in data set [4] is on record as “to a minor extent”.
